Measured values published in patent US20120077883A1, “TREATMENT OF TINNITUS AND ASSOCIATED AUDITORY DYSFUNCTIONS” (priority 2009, published 2012).
Like-named read-outs stand apart in the source and are kept apart here.

Tests used:
fibromyalgia patients = conditions: 10 to 40 mg over a 12 week period; cited from earlier work
subjects with tinnitus = tested on: subjects with tinnitus
Source text: Four selected outcome variables were used in this preliminary analysis: Global improvement (GI), Tinnitus Handicap Inventory (THI) and Tinnitus Impairment Questionnaire (TBF 12) questionnaires and Minimum Masking Levels (MML). The changes on the outcome variables were obtained by subtracting week 12's scores from the screening scores. The presence of a negative result means a decrease on values.
In Table 2 the changes on outcome variables are listed by Global Improvement (GI) classification, as follows: GI 1=much better; 2=better; 3=slightly better; 4=no change; 5=slightly worse; 6=worse; 7=much worse; THI: Tinnitus Handicap Inventory, TBF 12: Tinnitus Impairment Questionnaire; MML: minimal masking levels, measured in dB HL (Hearing Level).
Four different criteria were established to determine whether a subject responded or not to treatment (see Table 3).

[1] = Criteria 1: improvement on GI, 15 subjects
[2] = Criteria 2: Criteria 1 + decrease on THI
[3] = Criteria 3: Criteria 2 + decrease on TBF 12
[4] = Criteria 4: Criteria 3 + decrease on MML

CN(C)CCC=C1c2ccccc2C=Cc2ccccc21 [Cyclobenzaprine]
Quality of sleep and pain score (fibromyalgia patients): significantly improved
Total number of tender points and muscle tightness (fibromyalgia patients): reduction
Most frequent side effects (subjects with tinnitus; 15 subjects, oral 15-30 mg/day): dry mouth and constipation
Non responders % (subjects with tinnitus; Criteria 1: improvement on GI): 26.7%
Non responders n (subjects with tinnitus; Criteria 1: improvement on GI): 4
Responders % (subjects with tinnitus; [1]): 73.3%
Responders n (subjects with tinnitus; [1]): 11
Non responders % (subjects with tinnitus; [2]): 26.4%
Non responders n (subjects with tinnitus; [2]): 4
Responders % (subjects with tinnitus; [2]): 73.3%
Responders n (subjects with tinnitus; [2]): 11
Non responders % (subjects with tinnitus; [3]): 33.3%
Non responders n (subjects with tinnitus; [3]): 5
Responders % (subjects with tinnitus; [3]): 66.6%
Responders n (subjects with tinnitus; [3]): 10
Non responders % (subjects with tinnitus; [4]): 46.7%
Non responders n (subjects with tinnitus; [4]): 7
Responders % (subjects with tinnitus; [4]): 53.3%
Responders n (subjects with tinnitus; [4]): 8
Subjects Better or Much Better on GI (subjects with tinnitus; FIG. 1, 15 subjects): 8 subjects
Tolerability (subjects with tinnitus; common side effects like constipation and dry mouth): tolerated well by most subjects
Sleep and muscle relaxation (subjects with tinnitus; described by many patients): Improvement on sleep and muscle relaxation
Subjects with changes on tinnitus pitch (subjects with tinnitus; human, in vivo): 5 out of 15 subjects
Side effect that led one subject to interrupt the study (subjects with tinnitus; one subject, week 8): severe constipation
Results in tinnitus at a dosage of 30 mg/day (subjects with tinnitus; oral, 30 mg/day): Excellent results
Tinnitus change noticed where MML was not possible to measure (subjects with tinnitus; subject 3, intermittent tinnitus): change on intensity and less episodes
Progression of Minimum Masking Levels (MML) during the tests (subjects with tinnitus; subjects 4, 8, 9, 10 and 11, FIGS. 2-6): progressive reduction
Effect on tinnitus severity and tinnitus loudness (subjects with tinnitus; tested subjects): positive effect
Tinnitus after treatment was weaned off (subjects with tinnitus; weaned off after 12 weeks): got worse in some patients
